Reference: patent publication US9586958B2, “Prodrug derivatives of substituted triazolopyridines” (BAYER PHARMA AKTIENGESELLSCHAFT, priority 2013, dated 2017)

Tests used:
[1] = Metabolic stability in vitro, rat liver microsomes (calculation of Fmax); format: in vitro ADME
Protocol: (§1) The metabolic stability of test compounds in vitro was determined by incubating them at 1 μM with a suspension liver microsomes in 100 mM phosphate buffer, pH7.4 (NaH2PO4×H2O+Na2HPO4×2H2O) at a protein concentration of 0.5 mg/mL and at 37° C. The reaction was activated by adding a co-factor mix containing 1.2 mg NADP, 3 IU glucose-6-phosphate dehydrogenase, 14.6 mg glucose-6-phosphate and 4.9 mg MgCl2 in phosphate buffer, pH 7.4. Organic solvent in the incubations was limited to <0.2% dimethylsulfoxide (DMSO) and <1% methanol. During incubation, the microsomal suspensions were continuously shaken and aliquots were taken at 2, 8, 16, 30, 45 and 60 min, to which equal volumes of cold methanol were immediately added. Samples were frozen at −20° C. over night, subsequently centrifuged for 15 minutes at 3000 rpm and the supernatant was analyzed with an Agilent 1200 HPLC-system with LCMS/MS detection.
(§2) The half-life of a test compound was determined from the concentration-time plot. From the half-life the intrinsic clearances were calculated. Together with the additional parameters liver blood flow, specific liver weight and microsomal protein content the hepatic in vivo blood clearance (CL) and the maximal oral bioavailability (Fmax) were calculated for the different species. The following parameter values were used: Liver blood flow—1.3 L/h/kg (human), 2.1 L/h/kg (dog), 4.2 L/h/kg (rat); specific liver weight—21 g/kg (human), 39 g/kg (dog), 32 g/kg (rat); microsomal protein content—40 mg/g.
(§3) With the described assay only phase-I metabolism of microsomes is reflected, e.g. typically oxidoreductive reactions by cytochrome P450 enzymes and flavin mono-oxygenases (FMO) and hydrolytic reactions by esterases (esters and amides).

[2] = Metabolic stability in vitro, dog liver microsomes (calculation of Fmax); format: in vitro ADME
Protocol: as §1, §2, §3

[3] = biological target: T1, human kinase Mps-1 (Homo sapiens, UniProt P33981); test: Mps-1 kinase assay (TR-FRET) with 10 μM ATP; format: biochemical; conditions: Mps-1 Inhibition, IC50 (Assay with 10 μM ATP), comparison table with comparative examples
T1 construct: N-terminally GST-tagged human full length recombinant Mps-1 kinase; GST (N); purchased Invitrogen, Karslruhe, Germany PV4071
T1 sequence (P33981 1-857): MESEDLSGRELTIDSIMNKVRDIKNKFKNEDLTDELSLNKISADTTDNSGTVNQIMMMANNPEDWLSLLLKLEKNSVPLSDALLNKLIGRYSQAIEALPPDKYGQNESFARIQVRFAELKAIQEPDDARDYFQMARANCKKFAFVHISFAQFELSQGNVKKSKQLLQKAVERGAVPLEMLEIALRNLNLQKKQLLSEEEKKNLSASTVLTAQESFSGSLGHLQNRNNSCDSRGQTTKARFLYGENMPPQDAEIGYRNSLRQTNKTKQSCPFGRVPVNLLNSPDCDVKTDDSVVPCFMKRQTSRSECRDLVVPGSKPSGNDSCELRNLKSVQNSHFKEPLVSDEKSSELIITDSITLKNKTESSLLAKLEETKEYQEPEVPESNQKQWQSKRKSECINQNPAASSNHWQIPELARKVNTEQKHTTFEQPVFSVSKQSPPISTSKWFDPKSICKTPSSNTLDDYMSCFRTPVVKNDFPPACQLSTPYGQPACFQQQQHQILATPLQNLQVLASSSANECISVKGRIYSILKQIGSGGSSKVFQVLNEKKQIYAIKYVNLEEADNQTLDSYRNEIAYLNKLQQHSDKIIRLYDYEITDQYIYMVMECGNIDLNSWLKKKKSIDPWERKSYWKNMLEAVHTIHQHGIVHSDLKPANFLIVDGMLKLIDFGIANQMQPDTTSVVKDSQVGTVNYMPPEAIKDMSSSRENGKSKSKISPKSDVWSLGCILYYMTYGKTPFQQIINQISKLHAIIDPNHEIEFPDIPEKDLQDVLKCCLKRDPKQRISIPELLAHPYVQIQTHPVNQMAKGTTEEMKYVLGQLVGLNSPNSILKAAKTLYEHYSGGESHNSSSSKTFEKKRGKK

[4] = Metabolic stability in vitro, human liver microsomes (calculation of Fmax); format: in vitro ADME
Protocol: as §1, §2, §3

[5] = test system: HeLa-MaTu-ADR, multidrug-resistant human cervical carcinoma cells; test: Proliferation assay, HeLa-MaTu-ADR cells (crystal violet); format: cell-based; conditions: read-out: IC50 determined in a HeLa-MaTu-ADR cell proliferation assay
Protocol: (§4) Cultivated tumor cells (MCF7, hormone dependent human mammary carcinoma cells, ATCC HTB22; NCI-H460, human non-small cell lung carcinoma cells, ATCC HTB-177; DU 145, hormone-independent human prostate carcinoma cells, ATCC HTB-81; HeLa-MaTu, human cervical carcinoma cells, EPO-GmbH, Berlin; HeLa-MaTu-ADR, multidrug-resistant human cervical carcinoma cells, EPO-GmbH, Berlin; HeLa human cervical tumor cells, ATCC CCL-2; B16F10 mouse melanoma cells, ATCC CRL-6475) were plated at a density of 5000 cells/well (MCF7, DU145, HeLa-MaTu-ADR), 3000 cells/well (NCI-H460, HeLa-MaTu, HeLa), or 1000 cells/well (B16F10) in a 96-well multititer plate in 200 μl of their respective growth medium supplemented 10% fetal calf serum. After 24 hours, the cells of one plate (zero-point plate) were stained with crystal violet (see below), while the medium of the other plates was replaced by fresh culture medium (200 μl), to which the test substances were added in various concentrations (0 μM, as well as in the range of 0.01-30 μM; the final concentration of the solvent dimethyl sulfoxide was 0.5%). The cells were incubated for 4 days in the presence of test substances. Cell proliferation was determined by staining the cells with crystal violet: the cells were fixed by adding 20 μl/measuring point of an 11% glutaric aldehyde solution for 15 minutes at room temperature. After three washing cycles of the fixed cells with water, the plates were dried at room temperature. The cells were stained by adding 100 μl/measuring point of a 0.1% crystal violet solution (pH 3.0). After three washing cycles of the stained cells with water, the plates were dried at room temperature. The dye was dissolved by adding 100 μl/measuring point of a 10% acetic acid solution. The extinction was determined by photometry at a wavelength of 595 nm. The change of cell number, in percent, was calculated by normalization of the measured values to the extinction values of the zero-point plate (=0%) and the extinction of the untreated (0 μm) cells (=100%). The IC50 values were determined by means of a 4 parameter fit.

[6] = test system: HeLa human cervical tumor cells; test: Proliferation assay, HeLa cells (crystal violet); format: cell-based; conditions: HeLa, comparison table with comparative examples, read-out: Inhibition of cell proli-feration, cell line: HeLa, IC50
Protocol: as §4

[7] = Stability in buffer at pH 7.4 (HPLC); format: physicochemical; conditions: buffer pH 7.4, 37° C.
Protocol: 0.3 mg of the test compound are solved in 0.1 ml dimethylsulfoxide and 0.4 ml acetonitrile. For complete dissolution the HPLC vial with the sample solution is sonified for about 20 seconds. Then 1.0 ml of the buffer solution is added, and the sample is again treated in the ultrasonic bath.
90 g of sodium chloride, 13.61 g of potassium dihydrogen phosphate and 83.35 g of 1 M sodium hydroxide solution are made up to 1 liter with Millipore water and then diluted 1:10.
10 μl portions of the sample solution are analysed by HPLC to determine the amount of the test compound over a period of 24 hours at 37° C. The peak areas in percentage are used for quantification.
Agilent 1100 with DAD (G1315B), binary pump (G1312A), autosampler (G1329A), column oven (G1316A), thermostat (G1330B); column: Kromasil 100 C18, 250 mm×4 mm, 5 μm; column temperature: 37° C.; eluent A: water+5 ml of perchloric acid/liter, eluent B: acetonitrile.
The ratio of the peak areas (F) at different time points in relation to the peak areas at the starting time are shown in Table 2 for representative examples: […]

[8] = In vitro stability in rat plasma (HPLC detection); format: in vitro ADME; conditions: 37° C.
Protocol: 1 mg of test compound is dissolved in 1.25 ml dimethylsulfoxide. Then 1.25 ml water are added. 0.5 ml of this sample solution are mixed with 0.5 ml heparinized and 37° C. warm plasma (wistar rat plasma or human plasma). A first sample (10 μl) is immediately taken for HPLC analysis. In the period up to 4 h after the start of incubation further 10 μl aliquots are taken after 30, 60, 90, 120 and 240 minutes and the amount of the test compound is determined.
Agilent 1100 with DAD (G1315A), binary pump (G1312A), autosampler (G1329A), column oven (G1316A), thermostat (G1330B); column: Kromasil 100 C18, 250 mm×4 mm, 5 μm; column temperature: 45° C.; eluent A: water+5 ml of perchloric acid/liter, eluent B: acetonitrile.

[9] = comparison table with comparative examples

SMILES | Rat liver microsomes; Fmax [%] [1, 9] | Dog liver microsomes; Fmax [%] [2, 9] | also measured
COC(C(=O)Nc1ccc(-c2ccc3nc(Nc4ccccc4C#N)nn3c2)cc1)c1ccccc1 (stereo not shown) [reference compound] | 19% |  | 
CS(=O)(=O)c1ccc(Nc2nc3ccc(-c4ccc(NC(=O)Cc5ccc(F)cc5)cc4)cn3n2)c(OCC(F)(F)F)c1 [reference compound] |  | 25% | 
CCOc1cc(S(C)(=O)=O)ccc1Nc1nc2ccc(-c3ccc(C(=O)NCc4ccc(F)cc4)c(C)c3)cn2n1 [reference compound] |  | 12% | 
NC(C(=O)Nc1ccc(-c2ccc3nc(Nc4ccccc4C(F)(F)F)nn3c2)cc1)c1ccccc1 (stereo not shown) [reference compound] |  |  | IC50 [3]: 0.013 µM
COc1cc(C(=O)N2CC(F)C2)ccc1Nc1nc2ccc(-c3ccc(NC(=O)[C@H](C)c4ccc(F)cc4)cc3)cn2n1 [Compound A3, (2R)-N-{4-[2-({4-[(3-fluoroazetidin-1-yl)carbonyl]-2-methoxyphenyl}amino)-[1,2,4]triazolo[1,5-α]pyridin-6-yl]phenyl}-2-(4-fluorophenyl)propanamide] | 83% | 86% | Dog liver microsomes; Fmax [%] ([2]; dog liver microsomes, 1 μM): 86%; Human liver microsomes; Fmax [%] ([4]; human liver microsomes, 1 μM): >95%; calculated maximal oral bioavailability (Fmax) at 1 μM ([4]; po, pH 7.4, determined by means of human liver microsomes, read-out: maximum oral bioavailability (Fmax) in human): > 60%; IC50 [5]: < 10 µM; Rat liver microsomes; Fmax [%] ([1]; rat liver microsomes, 1 μM): 83%
COc1cc(N2CCOC2=O)ccc1Nc1nc2ccc(-c3ccc(NC(=O)Cc4ccc(F)cc4)cc3)cn2n1 [reference compound] |  | 17% | 
COc1cc(C(=O)N2CCOCC2)ccc1Nc1nc2ccc(-c3ccc(NC(=O)Cc4ccc(F)cc4)cc3)cn2n1 [reference compound] | 48% |  | 
N#Cc1c(F)cccc1Nc1nc2ccc(-c3ccc(NC(=O)Cc4ccc(F)cc4)cc3)cn2n1 [reference compound] |  | 15% | 
COc1cc(C(=O)NCC(F)(F)F)ccc1Nc1nc2ccc(-c3ccc(NC(=O)Cc4ccc(F)cc4)cc3)cn2n1 [reference compound] |  | 40% | 
N#Cc1ccccc1Nc1nc2ccc(-c3ccc(NC(=O)C4(c5ccccc5)CC4)cc3)cn2n1 [reference compound] |  |  | IC50 [3]: 0.011 µM; IC50 [6]: 1.4 µM
N#Cc1ccccc1Nc1nc2cnc(-c3ccc(NC(=O)Cc4ccc(F)cc4)cc3)cn2n1 [reference compound] |  |  | IC50 [6]: 1.5 µM
COc1cc(S(C)(=O)=O)ccc1N(C(=O)OC(OC(=O)[C@@H](N)C(C)C)C(C)C)c1nc2ccc(-c3ccc(NC(=O)[C@H](C)c4ccc(F)cc4)cc3)cn2n1.Cl (mixture of isomers) [Example 5.4, (1RS)-1-({[6-(4-{[(2R)-2-(4-fluorophenyl)propanoyl]amino}phenyl)[1,2,4]triazolo[1,5-α]pyridin-2-yl][2-methoxy-4-(methylsulfonyl)phenyl]carbamoyl}oxy)-2-methylpropyl-L-valinate hydrochloride] |  |  | % Test Compound after 24 h [F(t = 24 h) × 100/F(t = 0 h)] [7]: 17%; % Test Compound after 4 h [F(t = 24 h) × 100/F(t = 0 h)] [8]: 44%

Second part, led by results:

Rat liver microsomes; Fmax [%] [1, 9] | Dog liver microsomes; Fmax [%] [2, 9] | SMILES | also measured
26% |  | N#Cc1ccccc1Nc1nc2ccc(-c3ccc(NC(=O)C(F)c4ccccc4)cc3)cn2n1 (stereo not shown) [reference compound] | 
 | 10% | COc1cc(S(C)(=O)=O)ccc1Nc1nc2ccc(-c3ccc(NC(=O)Cc4ccc(F)cc4)cc3)cn2n1 [reference compound] | 
27% |  | N#Cc1ccccc1Nc1nc2ccc(-c3ccc(NC(=O)C(F)(F)c4ccccc4)cc3)cn2n1 [reference compound] | 
40% |  | COc1ccccc1Nc1nc2ccc(-c3ccc(NC(=O)Cc4ccccc4)cc3)cn2n1 [reference compound] | 
40% |  | N#Cc1ccccc1Nc1nc2ccc(-c3ccc(NC(=O)Cc4ccc(F)cc4)cc3)cn2n1 [reference compound] | 
